Data set [1] has as its system NF1-associated inoperable plexiform neurofibromas (PNs). The experiment in a line: Phase 2b trial: response of target PN by BICR volumetric MRI per REiNS criteria. The format is in vivo, human. Particulars: for Confirmed Objective Response Rate per REiNS criteria by BICR, n (%): 24-cycle treatment phase, BSA-based BID dose, 3 weeks on/1 week off; for Confirmed Partial Response, n (%): PR = ≥20% reduction in PN volume; for DoR ≥12 months: Kaplan-Meier based, data cut-off September 2023. As to the method: Participants were screened (assessed for eligibility as described below). […] The median age was 34.5 years (range 18 to 69 years); 85% were white and 64% were female. […] The most commonly reported morbidities were pain (90%) and disfigurement or major deformity (52%).
The median age was 10 years (range 2 to 17 years); 66% were white and 54% were female. […] The most commonly reported morbidities were pain (70%) and disfigurement or major deformity (50%).
Study treatment was administered orally at a twice daily (BID) dose specified in the table below. Dosing was on a 28-day Cycle (4-week course) with a 3 week on/1 week off schedule. The treatment period will last for up to 24 Cycles followed by a 30-day Safety Follow-Up period.
A partial response was defined as PN decrease ≥20% compared to baseline using centrally read MRI volumetric analysis.
The major efficacy outcome measure was confirmed objective response rate (ORR), defined as the percentage of patients with complete response (disappearance of the target PN) or confirmed partial response (≥20% reduction in PN volume confirmed at a subsequent tumor assessment within 2-6 months during the 24-cycle treatment phase). Responses were assessed by blinded independent central review (BICR) using volumetric magnetic resonance imaging (MRI) analysis per Response Evaluation in Neurofibromatosis and Schwannomatosis (REiNS) criteria. A secondary efficacy objective was to determine the duration of response for patients who achieved a confirmed objective response.

Data set [2] is described as follows: Pharmacokinetic parameters and characteristics of mirdametinib (Table A). The format is in vivo, human.
Where [3] appears, read: geometric least squares mean ratio, food effect.

Each structure is given as a SMILES string.

`O=C(NOC[C@H](O)CO)c1ccc(F)c(F)c1Nc1ccc(I)cc1F` (single isomer, unassigned) [mirdametinib]: the “Confirmed Complete Response, n (%)” value in data set [1] (Adult (N = 58)) and in data set [1] (Pediatric (N = 56)) was 0 n (%) in each case. In addition, the “Confirmed Objective Response Rate per REiNS criteria by BICR, n (%)” value is listed as 24 (41) n (%) in data set [1] (Adult (N = 58)) and 29 (52) n (%) in data set [1] (Pediatric (N = 56)). Besides, the entries for the “Confirmed Partial Response, n (%)” value in data set [1] (Adult (N = 58)) and in data set [1] (Pediatric (N = 56)) were 24 (41) n (%) and 29 (52) n (%), respectively. In addition, the “DoR ≥12 months” value is 18 (75%) in data set [1] (Adult responders) and 22 (76%) in data set [1] (Pediatric responders). Moreover, the results for the “median time to onset of response” value in data set [1] (adult cohort (range: 4.0 months to 19.0 months)) and in data set [1] (pediatric cohort (range: 4.1 months to 18.8 months)) were 7.8 months and 7.9 months, respectively. The “ORR also considering confirmed objective responses after cycle 24” value was 45% in data set [1] (adults (95% CI: 32, 59)) and 54% in data set [1] (pediatric patients (95% CI: 40, 67)). For the same compound, the “Tmax [median (range)]” value in data set [2] (Capsule) was “Capsule: 1.08 (0.00-4.17) hours post dose”; in data set [2] (Tablet), “Tablet: 0.83 (0.42-3.02) hours post dose”. Also, in data set [2] (In feces), the “Excretion: radioactivity in feces” value is given as “In feces: 27%”. Moreover, the “Excretion: radioactivity in urine” value in data set [2] (In urine) is given as “In urine: 68%”. The “Excretion: unchanged mirdametinib in urine” value in data set [2] (In urine) is “In urine: 0.7%”. In data set [2] (In urine and feces), the “Excretion: unchanged mirdametinib in urine and feces” value was “In urine and feces: 9%”. Besides, the “Food effect [GMR % (90% CI)] AUCinf” value in data set [2] (setting [3]) is 93% (90%, 96%). For the same compound, the “Food effect [GMR % (90% CI)] Cmax” value in data set [2] (setting [3]) was 57% (54%, 61%). Also, in data set [2] (in vivo), the Time to steady-state entry was “Approximately 6 days”.
